# In patent publication US9896697B2, “Defensin-encoding nucleic acid molecules derived from Nicotiana alata, uses therefor and transgenic plants comprising same” (HEXIMA LIMITED, priority 2001, dated 2018):
# Columns and labels:
# [1] = tested on: H. armigera larvae; assay: Insect feeding trial with artificial cotton leaf diet; format: in vivo; settings: 0.3% (w/v) test protein in artificial diet; casein control; FIG. 16
# Excerpt: Table 2 Artificial diet ingredients used in the feeding trial of H. armigera [table] Helicoverpa punctigera larvae came from a colony collected in Victoria, Australia and maintained in culture at La Trobe University, Melbourne and H. armigera were obtained from a colonies maintained at La Trobe University, Melbourne or the Australian Cotton Research Institute, at the Entomology Department of the Commonwealth Scientific and Industrial Research Organisation in Narrabri, NSW. To confirm that the insecticidal activity was due to the defensin and not to upregulation of other endogenous defense molecules, a feeding trial using artificial cotton leaf diet containing purified defensin from floral buds was performed. The 6 kDa cysteine rich proteinase inhibitors (NaPI) from N. alata (Atkinson et al., Plant Cell 5: 203-213, 1993) were used as positive control and casein was used as a negative control. Feeding trials were conducted as described in Heath et al. (J. Insect Physiology 43: 833-842, 1997 except that the artificial diet was based on cotton leaves (Table 2). Thirty milligram of defensin was purified from floral buds of N. alata and used in artificial diets at two concentrations. H. armigera larvae fed on defensin at 0.3% (w/v) were 40% smaller than controls (FIG. 16) while larvae fed on NaPI at the same concentration were about 60% smaller than controls.
# [2] = tested on: Fusarium oxysporum (f. sp. vasinfectum, isolate VCG 01111); assay: Fungal growth inhibition assay, 96-well microtitre plate, absorbance at 595 nm; format: cell-based; settings: 20 μg/mL purified protein; FIGS. 12B and 12C
# Excerpt: (§1) The 96-well microtitre plate assay of Broekaert et al. (EMS Microbiology Letters 69:55-60, 1990) was used to test the effect of the purified NaPdf1 protein on the growth of Botrytis cinerea (isolated from rosemary, Brunswick, Victoria), Fusarium oxysporum (f. sp. dianthi, Race 2; isolated from carnation by Florigene Limited, Collingwood, Victoria) and Fusarium oxysporum (f. sp. vasinfectum, isolate VCG 01111 from cotton; provided by the Department of Primary Industries, Queensland). Fungal spores were isolated from sporulating cultures growing on half strength potato dextrose agar (PDA, Difco) or gamma-irradiated carnation leaves in water agar by the addition of sterile water and the use of a spreader. The suspension was filtered through two layers of autoclaved muslin and the spore concentration in the filtrate determined using a haemocytometer. The spores were used directly or after storage in sterile 20% v/v glycerol solution at −20° C.
# (§2) Antifungal assays were performed in 96-well flat-bottomed microtitre plates (Greiner) under aseptic conditions. The spore concentration was adjusted to about 2×10^4 spores/mL in PDB and 80 μL of this suspension was added to each well to which 20 μL of filter sterilised (0.22 μm syringe filter, Millipore) test protein (10, 50 or 100 μg/mL) or water was added. The purity and concentration of each protein was confirmed before use by RP-HPLC analysis. Sterile water and ovalbumin (Sigma) were added to other wells as negative controls, and a mixture of the antifungal proteins α- and β-purothionin (Sigma) was used as a positive control. The plates were shaken on an orbital shaker for a few seconds to mix the spores and the test proteins. The plates were allowed to stand for 30 min to allow the spores to sediment before the optical density of the plates were determined using a Spectra Max Pro 250 microplate reader (Molecular Devices) at 595 nm absorbance. […] An increase in absorbance relative to the initial reading was correlated with the growth of fungal hyphae and this was plotted against time. […]
# [3] = tested on: Botrytis cinerea; assay: as above; format: cell-based; settings: 20 μg/mL purified protein; FIG. 11
# Excerpt: as §1, §2
# [4] = tested on: Fusarium oxysporum (f. sp. dianthi, Race 2); assay: as above; format: cell-based; settings: 20 μg/mL purified protein; FIG. 12A
# Excerpt: as §1, §2
substance,measurement,setting,value
"NaPdf1: Mature floral defensin (47 amino acids, ~5.3 kDa) from Nicotiana alata, purified from floral buds (RECKTESNTFPGICITKPPCRKACISEKFTDGHCSKILRRCLCTKPC; listed as Nicotiana alata)",larvae smaller than controls (mean weight),[1],40%
same,growth inhibition of F. oxysporum f. sp. vasinfectum,[2],effectiveness
same,growth inhibition of B. cinerea,[3],effectiveness
same,growth inhibition of F. oxysporum f. sp. dianthi,[4],effectiveness
